# Tests used:
# Assay in all cases: Experiment B1 glasshouse herbicide test, pre- and post-emergence, percentage damage
# Format in all cases: in vivo
# Details in all cases: evaluated after 13 days
# Solanum nigrum (SOLNI) = tested on: Solanum nigrum (SOLNI)
# Description: (§1) Seeds of a variety of test species are sown in standard soil in pots (Lolium perenne (LOLPE), Solanum nigrum (SOLNI), Amaranthus retoflexus (AMARE), Setaria faberi (SETFA), Echinochloa crus-galli (ECHCG), Ipomoea hederacea (IPOHE)). After cultivation for one day (pre-emergence) or after 8 days cultivation (post-emergence) under controlled conditions in a glasshouse (at 24/16° C., day/night; 14 hours light; 65% humidity), the plants are sprayed with an aqueous spray solution derived from the formulation of the technical active ingredient in acetone/water (50:50) solution containing 0.5% Tween 20 (polyoxyethelyene sorbitan monolaurate, CAS RN 9005-64-5). […] The test plants are then grown in a glasshouse under controlled conditions in a glasshouse (at 24/16° C., day/night; 14 hours light; 65% humidity) and watered twice daily. After 13 days for pre and post-emergence, the test is evaluated for the percentage damage caused to the plant. The biological activities are shown in the following table on a five point scale (5=80-100%; 4=60-79%; 3=40-59%; 2=20-39%; 1=0-19%).
# [1] = tested on: Ipomoea hederacea (IPOHE)
# Description: as §1
# [2] = tested on: Amaranthus retoflexus (AMARE)
# Description: as §1
# [3] = tested on: Echinochloa crus-galli (ECHCG)
# Description: as §1
# Lolium perenne (LOLPE) = tested on: Lolium perenne (LOLPE)
# Description: as §1
# Setaria faberi (SETFA) = tested on: Setaria faberi (SETFA)
# Description: as §1
# [4] = POST Application (post-emergence, after 8 days cultivation), 1000 g/h
# [5] = PRE Application (pre-emergence, after cultivation for one day), 1000 g/h
# [6] = POST Application (post-emergence), applied at 250 g/ha
# [7] = PRE Application (pre-emergence), applied at 250 g/ha
SMILES,"percentage damage caused to the plant, five point scale, SOLNI (Solanum nigrum (SOLNI); [4])","percentage damage caused to the plant, five point scale, SOLNI (Solanum nigrum (SOLNI); [5])","percentage damage caused to the plant, five point scale, IPOHE [1, 4]","percentage damage caused to the plant, five point scale, IPOHE [1, 5]","percentage damage caused to the plant, five point scale, AMARE [2, 4]","percentage damage caused to the plant, five point scale, AMARE [2, 5]","percentage damage caused to the plant, five point scale, ECHCG [3, 4]","percentage damage caused to the plant, five point scale, ECHCG [3, 5]","percentage damage caused to the plant, five point scale, LOLPE (Lolium perenne (LOLPE); [4])","percentage damage caused to the plant, five point scale, LOLPE (Lolium perenne (LOLPE); [5])","percentage damage caused to the plant, five point scale, SETFA (Setaria faberi (SETFA); [4])","percentage damage caused to the plant, five point scale, SETFA (Setaria faberi (SETFA); [5])",also measured
CCn1nnnc1NC(=O)c1cc2cccnc2c(-c2ccccc2)c1C(F)(F)F [Compound 1.002],5 (5=80-100%),5 (5=80-100%),5 (5=80-100%),5 (5=80-100%),5 (5=80-100%),5 (5=80-100%),5 (5=80-100%),5 (5=80-100%),5 (5=80-100%),5 (5=80-100%),5 (5=80-100%),5 (5=80-100%),
CCCn1nnnc1NC(=O)c1cc2cccnc2c(-c2ccccc2)c1C(F)(F)F [Compound 1.003],5 (5=80-100%),5 (5=80-100%),4 (4=60-79%),2 (2=20-39%),5 (5=80-100%),5 (5=80-100%),3 (3=40-59%),5 (5=80-100%),1 (1=0-19%),1 (1=0-19%),2 (2=20-39%),1 (1=0-19%),
"Cn1nnnc1NC(=O)c1cc2cc(F)cnc2c(-c2ccccc2)c1C(F)(F)F [Compound 1.007, 3-fluoro-N-(1-methyltetrazol-5-yl)-8-phenyl-7-(trifluoromethyl)quinoline-6-carboxamide]",5 (5=80-100%),5 (5=80-100%),5 (5=80-100%),5 (5=80-100%),5 (5=80-100%),5 (5=80-100%),5 (5=80-100%),5 (5=80-100%),5 (5=80-100%),5 (5=80-100%),5 (5=80-100%),5 (5=80-100%),
"COc1c(C(=O)Nc2nnnn2C)cc2cccnc2c1-c1ccccc1 [Compound 1.009, 7-methoxy-N-(1-methyltetrazol-5-yl)-8-phenyl-quinoline-6-carboxamide]",5 (5=80-100%),5 (5=80-100%),5 (5=80-100%),5 (5=80-100%),5 (5=80-100%),5 (5=80-100%),5 (5=80-100%),5 (5=80-100%),4 (4=60-79%),5 (5=80-100%),5 (5=80-100%),5 (5=80-100%),
"Cn1nnnc1NC(=O)c1cc2cccnc2c(-c2ccccc2)c1S(C)(=O)=O [Compound 1.010, 7-METHYLSULFONYL-N-(1-METHYLTETRAZOL-5-YL)-8-PHENYL-QUINOLINE-6-CARBOXAMIDE]",,,,,,,,,,,,,"percentage damage caused to the plant, five point scale, SOLNI (Solanum nigrum (SOLNI); [6]): 5 (5=80-100%); percentage damage caused to the plant, five point scale, SOLNI (Solanum nigrum (SOLNI); [7]): 5 (5=80-100%); percentage damage caused to the plant, five point scale, IPOHE [1, 6]: 5 (5=80-100%); percentage damage caused to the plant, five point scale, IPOHE [1, 7]: 4 (4=60-79%); percentage damage caused to the plant, five point scale, AMARE [2, 6]: 5 (5=80-100%); percentage damage caused to the plant, five point scale, AMARE [2, 7]: 5 (5=80-100%); percentage damage caused to the plant, five point scale, ECHCG [3, 6]: 5 (5=80-100%); percentage damage caused to the plant, five point scale, ECHCG [3, 7]: 5 (5=80-100%); percentage damage caused to the plant, five point scale, LOLPE (Lolium perenne (LOLPE); [6]): 4 (4=60-79%); percentage damage caused to the plant, five point scale, LOLPE (Lolium perenne (LOLPE); [7]): 2 (2=20-39%); percentage damage caused to the plant, five point scale, SETFA (Setaria faberi (SETFA); [6]): 5 (5=80-100%); percentage damage caused to the plant, five point scale, SETFA (Setaria faberi (SETFA); [7]): 2 (2=20-39%)"
"Cn1nnnc1NC(=O)c1cc2cccnc2c(-c2ccccc2)c1Cl [Compound 1.011, 7-chloro-N-(1-methyltetrazol-5-yl)-8-phenyl-quinoline-6-carboxamide]",5 (5=80-100%),5 (5=80-100%),5 (5=80-100%),5 (5=80-100%),5 (5=80-100%),5 (5=80-100%),5 (5=80-100%),5 (5=80-100%),5 (5=80-100%),5 (5=80-100%),5 (5=80-100%),5 (5=80-100%),
Cc1ccc(-c2c(C(F)(F)F)c(C(=O)Nc3nnnn3C)cc3cccnc23)cc1 [Compound 1.017],5 (5=80-100%),5 (5=80-100%),5 (5=80-100%),5 (5=80-100%),5 (5=80-100%),5 (5=80-100%),5 (5=80-100%),5 (5=80-100%),4 (4=60-79%),4 (4=60-79%),5 (5=80-100%),5 (5=80-100%),
"CSc1ccc(-c2c(C)c(C(=O)Nc3nnnn3C)cc3cccnc23)cc1 [Compound 1.030, 7-methyl-8-(4-methylsulfanylphenyl)-N-(1-methyltetrazol-5-yl)quinoline-6-carboxamide]",5 (5=80-100%),5 (5=80-100%),5 (5=80-100%),4 (4=60-79%),5 (5=80-100%),5 (5=80-100%),5 (5=80-100%),5 (5=80-100%),4 (4=60-79%),4 (4=60-79%),5 (5=80-100%),5 (5=80-100%),

# Source: patent publication US9980486B2, “Herbicidal quinolines” (Syngenta Participations AG, priority 2014, dated 2018)
